Patent US12214092B2, “Systems and methods for treating biological fluids” (Cerus Corporation, priority 2017, dated 2025)

What was measured:
[1] = Amotosalen concentration in platelets in 100% plasma (75 μM/340 nm or 150 μM/INT-100), HPLC; assay type: physicochemical
[2] = Photochemical conversion of S-59 (150 μM) and photoproduct profile in plasma, PAS or PAS+plasma units, HPLC; assay type: physicochemical
platelets = experiment: Platelet quality, platelets in 35% plasma/65% PAS III, amotosalen 30-110 μM, 340 nm device ~7.2 J/cm^2; assay type: cell-based
[3] = 65/35 PAS+Plasma, 340 nm LED ~3.6 J/cm^2
[4] = 65/35 PAS+Plasma, 365 nm LED ~3.6 J/cm^2

Cc1oc2c(C)c3oc(=O)cc(C)c3cc2c1COCCN [S-59, 3-(2-aminoethoxymethyl)-2,5,9-trimethylfuro[3,2-g]chromen-7-one]
% Residual S-59 ([1]; 340/~6.4 (75 μM input)): 2.5% | S-59 concentration ([1]; 340/~6.4 (75 μM input), Post-UVA): 2.4 µM | S-59 concentration ([1]; 340/~6.4 (75 μM input), Pre-UVA): 93.3 µM | % Residual S-59 ([1]; 340/~7.2 (75 μM input)): 2.0% | S-59 concentration ([1]; 340/~7.2 (75 μM input), Post-UVA): 1.9 µM | S-59 concentration ([1]; 340/~7.2 (75 μM input), Pre-UVA): 94.0 µM | S-59 concentration ([1]; INT-100 (150 μM input), Post-CAD): 0.2 µM | S-59 concentration ([1]; INT-100 (150 μM input), Pre-UVA): 173.2 µM | % Residual S-59 ([1]; INT-100 ~3.6 J/cm^2 (150 μM input)): 40.1% | S-59 concentration ([1]; INT-100 ~3.6 J/cm^2 (150 μM input), Post-UVA): 69.4 µM | % of input S-59 remaining [2, 3]: 9.1% | Post-illumination HPLC area counts [2, 3]: 1249 | % of input S-59 remaining [2, 4]: 46.2% | Post-illumination HPLC area counts [2, 4]: 5889 | % of input S-59 remaining ([2]; PAS, 340 nm LED ~3 J/cm^2): 13.4% | Post-illumination HPLC area counts ([2]; PAS, 340 nm LED ~3 J/cm^2): 1436 | % of input S-59 remaining ([2]; PAS, 365 nm LED ~3 J/cm^2): 36.8% | Post-illumination HPLC area counts ([2]; PAS, 365 nm LED ~3 J/cm^2): 4118 | % of input S-59 remaining ([2]; PAS, INT100 ~6.4 J/cm^2): 26.2% | Post-illumination HPLC area counts ([2]; PAS, INT100 ~6.4 J/cm^2): 2905 | % of input S-59 remaining ([2]; Plasma, 340 nm LED ~6.4 J/cm^2): 33.1% | Post-illumination HPLC area counts ([2]; Plasma, 340 nm LED ~6.4 J/cm^2): 4957 | % of input S-59 remaining ([2]; Plasma, 365 nm LED ~6.4 J/cm^2): 66.8% | Post-illumination HPLC area counts ([2]; Plasma, 365 nm LED ~6.4 J/cm^2): 9675 | % of input S-59 remaining ([2]; Plasma, INT100 ~6.4 J/cm^2): 60.5% | Post-illumination HPLC area counts ([2]; Plasma, INT100 ~6.4 J/cm^2): 8513 | Glucose (platelets; 30 μM, D4): 3.27 mmol/L | LDH (platelets; 30 μM, D4): 7.44 LDH IU/10^11 platelets | Lactate (platelets; 30 μM, D4): 7.1 mmol/L | Platelet counts (platelets; 30 μM, D4): 1385 x10^3 cells/μL | Platelet lysis (platelets; 30 μM, D4): 2.86% | pCO2 at 37° C. (platelets; 30 μM, D4): 26.7 mm Hg | pH at 22° C. (platelets; 30 μM, D4): 7.11 | pH at 37° C. (platelets; 30 μM, D4): 6.88 | pO2 at 37° C. (platelets; 30 μM, D4): 28.9 mm Hg | Glucose (platelets; 30 μM, D7): 0.16 mmol/L | LDH (platelets; 30 μM, D7): 8.26 LDH IU/10^11 platelets | Lactate (platelets; 30 μM, D7): 15.38 mmol/L | Platelet counts (platelets; 30 μM, D7): 1392 x10^3 cells/μL | Platelet lysis (platelets; 30 μM, D7): 3.17% | pCO2 at 37° C. (platelets; 30 μM, D7): 23.6 mm Hg | pH at 22° C. (platelets; 30 μM, D7): 7.08 | pH at 37° C. (platelets; 30 μM, D7): 6.86 | pO2 at 37° C. (platelets; 30 μM, D7): 57.3 mm Hg | Glucose (platelets; 30 μM, Post-UV): 5.45 mmol/L | LDH (platelets; 30 μM, Post-UV): 7.80 LDH IU/10^11 platelets | Lactate (platelets; 30 μM, Post-UV): 8.21 mmol/L | Platelet counts (platelets; 30 μM, Post-UV): 1308 x10^3 cells/μL | Platelet lysis (platelets; 30 μM, Post-UV): 2.85% | pCO2 at 37° C. (platelets; 30 μM, Post-UV): 34.9 mm Hg | pH at 22° C. (platelets; 30 μM, Post-UV): 7.07 | pH at 37° C. (platelets; 30 μM, Post-UV): 6.84 | pO2 at 37° C. (platelets; 30 μM, Post-UV): 11.6 mm Hg | Glucose (platelets; 30 μM, Pre-UV): 5.2 mmol/L | LDH (platelets; 30 μM, Pre-UV): 7.13 LDH IU/10^11 platelets | Lactate (platelets; 30 μM, Pre-UV): 8.6 mmol/L | Platelet counts (platelets; 30 μM, Pre-UV): 1346 x10^3 cells/μL | Platelet lysis (platelets; 30 μM, Pre-UV): 2.46% | pCO2 at 37° C. (platelets; 30 μM, Pre-UV): 35.0 mm Hg | pH at 22° C. (platelets; 30 μM, Pre-UV): 7.07 | pH at 37° C. (platelets; 30 μM, Pre-UV): 6.85 | pO2 at 37° C. (platelets; 30 μM, Pre-UV): 4.8 mm Hg | Glucose (platelets; 60 μM, D4): 2.92 mmol/L | LDH (platelets; 60 μM, D4): 8.12 LDH IU/10^11 platelets | Lactate (platelets; 60 μM, D4): 10.11 mmol/L | Platelet counts (platelets; 60 μM, D4): 1379 x10^3 cells/μL | Platelet lysis (platelets; 60 μM, D4): 3.10% | pCO2 at 37° C. (platelets; 60 μM, D4): 26.6 mm Hg | pH at 22° C. (platelets; 60 μM, D4): 7.11 | pH at 37° C. (platelets; 60 μM, D4): 6.88 | pO2 at 37° C. (platelets; 60 μM, D4): 28.8 mm Hg | Glucose (platelets; 60 μM, D7): 0 mmol/L | LDH (platelets; 60 μM, D7): 8.48 LDH IU/10^11 platelets | Lactate (platelets; 60 μM, D7): 15.16 mmol/L | Platelet counts (platelets; 60 μM, D7): 1403 x10^3 cells/μL | Platelet lysis (platelets; 60 μM, D7): 3.37% | pCO2 at 37° C. (platelets; 60 μM, D7): 23.1 mm Hg | pH at 22° C. (platelets; 60 μM, D7): 7.08 | pH at 37° C. (platelets; 60 μM, D7): 6.86 | pO2 at 37° C. (platelets; 60 μM, D7): 61.0 mm Hg | Glucose (platelets; 60 μM, Post-UV): 5.04 mmol/L | LDH (platelets; 60 μM, Post-UV): 7.53 LDH IU/10^11 platelets | Lactate (platelets; 60 μM, Post-UV): 6.93 mmol/L | Platelet counts (platelets; 60 μM, Post-UV): 1249 x10^3 cells/μL | Platelet lysis (platelets; 60 μM, Post-UV): 2.65% | pCO2 at 37° C. (platelets; 60 μM, Post-UV): 35.1 mm Hg | pH at 22° C. (platelets; 60 μM, Post-UV): 7.06
